Earlier results on 1 compound are cited in US20020103240A1, “Process for resolution of 2-amino-6-propylamino-4,5,6,7-tetrahydrobenzthiazole and compounds therefor” (priority 2000, published 2002).

For the data set the following is noted: (S) isomer compared with (R) enantiomer; no test described.

For the compound `CCCN[C@H]1CCc2nc(N)sc2C1` [pramipexole, (S)-2-amino-6-propylamino-4,5,6,7-tetrahydrobenzothiazole], the “dopaminergic activity of the (S) isomer relative to the (R) enantiomer” value is listed as “twice as high”.
